Measurements: US20260125382A1, “COMPOUNDS FOR INHIBITING OR DEGRADING CDK2 AND/OR CDK9 AND MEDICINAL USE THEREOF” (KOREA RESEARCH INSTITUTE OF CHEMICAL TECHNOLOGY, priority 2022, published 2026)

Experiments:
CDK2 = molecular target: T1, CDK2 (Homo sapiens, UniProt P24941); assay: CDK protein degradation activity (Western blotting), CDK2; type: cell-based; conditions: MDA-MB-231 cells, 16 hours, Western blot
T1 construct: endogenous in cells; host or cells: MDA-MB-231
Procedure, shortened: (§1)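 Protein levels were read by Western blot densitometry, tubulin serving as loading reference. Beforehand, MDA-MB-231 cells had been exposed for 16 hours to 100 nM, 1 μM or 10 μM compound, DMSO as control.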

CDK9 = molecular target: T2, CDK9 (Homo sapiens, UniProt P50750); assay: CDK protein degradation activity (Western blotting), CDK9; type: cell-based; conditions: MDA-MB-231 cells, 16 hours, Western blot
T2 construct: endogenous in cells; host or cells: MDA-MB-231
T2 sequence (P50750 whole entry): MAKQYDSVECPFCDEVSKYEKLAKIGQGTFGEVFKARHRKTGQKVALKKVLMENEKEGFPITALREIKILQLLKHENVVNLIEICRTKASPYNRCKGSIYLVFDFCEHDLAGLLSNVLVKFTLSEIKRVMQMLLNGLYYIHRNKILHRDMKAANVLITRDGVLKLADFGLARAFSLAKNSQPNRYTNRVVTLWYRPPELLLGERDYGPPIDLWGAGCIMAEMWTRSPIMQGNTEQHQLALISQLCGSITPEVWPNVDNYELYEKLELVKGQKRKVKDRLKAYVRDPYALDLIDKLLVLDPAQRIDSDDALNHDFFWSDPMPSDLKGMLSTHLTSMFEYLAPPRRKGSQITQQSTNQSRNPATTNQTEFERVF
Procedure, shortened: as §1

Row | Enzyme degradation CDK2 (% remaining) @ 0.1 μM (CDK2) | Enzyme degradation CDK2 (% remaining) @ 1 μM (CDK2) | Enzyme degradation CDK2 (% remaining) @ 10 μM (CDK2) | Enzyme degradation CDK9 (% remaining) @ 0.1 μM (CDK9) | Enzyme degradation CDK9 (% remaining) @ 1 μM (CDK9) | Enzyme degradation CDK9 (% remaining) @ 10 μM (CDK9) | Structure (SMILES)
1 | 70/70/70% | 70/70/70% | 70/70/70% | 20/20/20% | 20/20/20% | 20/20/20% | Cc1cccc(C(=O)N[C@H]2C[C@@H](n3cnc4c(Nc5ccc(N6CCN(CC7CCN(C(=O)C8CN(c9ccc%10c(c9)C(=O)N([C@H]9CCC(=O)NC9=O)C%10=O)C8)CC7)CC6)cc5C)ncnc43)C2)n1 [Compound 448, N-((1s,3s)-3-(6-((4-(4-((1-(1-(2-(2,6-dioxopiperidin-3-yl)-1,3-dioxoisoindolin-5-yl)azetidin-3-carbonyl)piperidin-4-yl)methyl)piperazin-1-yl)-2-methylphenyl)amino)-9H-purin-9-yl)cyclobutyl)-6-methylpicolinamide]
2 | 50% | 40% | 40% | 10/10/10% | 10/10/10% | 10/10/10% | Cc1cccc(C(=O)NC2CC(n3cnc4c(Nc5ccc(N6CCN(CCC7CCN(C(=O)C8CCN(c9cc%10c(cc9F)C(=O)N([C@H]9CCC(=O)NC9=O)C%10=O)CC8)CC7)CC6)cc5)ncnc43)C2)n1 (stereo partly drawn) [Compound 449, N-((1s,3s)-3-(6-((4-(4-(2-(1-(1-(2-(2,6-dioxopiperidin-3-yl)-6-fluoro-1,3-dioxoisoindolin-5-yl)piperidin-4-carbonyl)piperidin-4-yl)ethyl)piperazin-1-yl)phenyl)amino)-9H-purin-9-yl)cyclobutyl)-6-methylpicolinamide]
3 | 50/50/50% | 50/50/50% | 50/50/50% | 0/0/0% | 0/0/0% | 0/0/0% | Cc1cccc(C(=O)N[C@H]2C[C@@H](n3cnc4c(NCCC5CCN(CC6CCN(C(=O)C7CCN(c8cc9c(cc8F)C(=O)N(C8CCC(=O)NC8=O)C9=O)CC7)CC6)CC5)ncnc43)C2)n1 (stereo partly drawn) [Compound 450, N-((1s,3s)-3-(6-((2-(1-((1-(1-(2-(2,6-dioxopiperidin-3-yl)-6-fluoro-1,3-dioxoisoindolin-5-yl)piperidin-4-carbonyl)piperidin-4-yl)methyl)piperidin-4-yl)ethyl)amino)-9H-purin-9-yl)cyclobutyl)-6-methylpicolinamide]
4 | 50% | 30% | 30% | 0/0/0% | 0/0/0% | 0/0/0% | O=C1CC[C@H](N2C(=O)c3ccc(N4CC(C(=O)N5CCC(CN6CCN(c7ccc(Nc8ncnc9c8ncn9C8CC(NC(=O)c9cccc(Cl)n9)C8)cc7)CC6)CC5)C4)cc3C2=O)C(=O)N1 (stereo partly drawn) [Compound 451, 6-chloro-N-((1s,3s)-3-(6-((4-(4-((1-(1-(2-(2,6-dioxopiperidin-3-yl)-1,3-dioxoisoindolin-5-yl)azetidin-3-carbonyl)piperidin-4-yl)methyl)piperazin-1-yl)phenyl)amino)-9H-purin-9-yl)cyclobutyl)picolinamide]
5 | 30/30/30% | 30/30/30% | 30/30/30% | 0/0/0% | 0/0/0% | 0/0/0% | O=C1CCC(N2C(=O)c3ccc(N4CCC(C(=O)N5CCC(CN6CCN(c7ccc(Nc8ncnc9c8ncn9[C@H]8C[C@@H](NC(=O)c9cccc(Cl)n9)C8)cc7)CC6)CC5)CC4)cc3C2=O)C(=O)N1 (stereo partly drawn) [Compound 452, 6-chloro-N-((1s,3s)-3-(6-((4-(4-((1-(1-(2-(2,6-dioxopiperidin-3-yl)-1,3-dioxoisoindolin-5-yl)piperidin-4-carbonyl)piperidin-4-yl)methyl)piperazin-1-yl)phenyl)amino)-9H-purin-9-yl)cyclobutyl)picolinamide]
